Test results published in ChEMBL document CHEMBL5338814, “Discovery of Small-Molecule Degraders for Alpha-Synuclein Aggregates” (J Med Chem, 2023).
Each block holds one compound with its values, some of them ahead of it. Calls of active or inactive are those of the source. The calls are words filed in the database; no cut-off is given here.

Key:
[1] = biological target: von Hippel-Lindau disease tumor suppressor/Alpha-synuclein (Homo sapiens) (UniProt P37840+P40337); assay: PROTAC activity at VHL/recombinant alpha-synuclein preformed fibrils seeded in HEK293T cells assessed as decrease in alpha-synuclein aggregates upto 40 uM measured after 48 hrs by immunoblot analysis; type: cell-based
HEK-293T [2] = assay: Effect on alpha-synuclein total level in HEK293T cells upto 40 uM measured after 48 hrs by immunoblot analysis; type: functional, cell-based; details: Homo sapiens
HEK-293T [3] = assay: Activation of autophagy-lysosome pathway in HEK293T cells seeded with recombinant alpha-synuclein preformed fibrils assessed as increase in LC3B-II/I ratio at 10 uM incubated for 6 hrs by immunoblot analysis; type: functional, cell-based; details: Homo sapiens
Caenorhabditis elegans [4] = assay: In vivo PROTAC activity at CRBN/Alpha-synuclein overexpressed in Caenorhabditis elegans NL5901 co-expressing YFP fusion protein assessed as reduction in alpha-synuclein-YFP MFI at 20 to 80 uM incubated for 48 hrs by confocal laser scanning microscopic analysis; type: functional, organism-based; details: dose 20-80 µM
SH-SY5Y [5] = assay: Neuroprotective activity against alpha-synuclein aggregate-induced cell death in human SH-SY5Y cells over-expressing alpha-synuclein preformed fibrils assessed as decrease in cell death at 10 uM by CCK8 assay; type: functional, cell-based
HEK-293T [6] = assay: Activation of autophagy-lysosome pathway in HEK293T cells seeded with recombinant alpha-synuclein preformed fibrils harboring adenovirus-mCherry-GFP-LC3B assessed as increase in LC3B punctae density at 10 uM treated for 6 hrs by DAPI staining based confocal laser scanning microscopic analysis; type: functional, cell-based; details: Homo sapiens
[7] = 1-Octanol-water partition coefficient, logP of the compound incubated for 24 hrs by HPLC analysis; type: physicochemical
HEK-293T [8] = assay: Activation of autophagy-lysosome pathway in HEK293T cells seeded with recombinant alpha-synuclein preformed fibrils assessed as increase in LAMP1 expression at 10 uM incubated for 6 hrs by immunoblot analysis; type: functional, cell-based; details: Homo sapiens
HEK-293T [9] = assay: Activation of autophagy-lysosome pathway in HEK293T cells seeded with recombinant alpha-synuclein preformed fibrils harboring adenovirus-mCherry-GFP-LC3B assessed as increase in LC3B punctae number at 10 uM treated for 6 hrs by DAPI staining based confocal laser scanning microscopic analysis; type: functional, cell-based; details: Homo sapiens
HEK-293T [10] = assay: Activation of autophagy-lysosome pathway in HEK293T cells seeded with recombinant alpha-synuclein preformed fibrils assessed as increase in lysosome generation at 10 uM incubated for 6 hrs by LyTR staining based confocal laser scanning microscopic analysis; type: functional, cell-based; details: Homo sapiens
HEK-293T [11] = assay: Downregulation of alpha-synuclein in HEK293T cells seeded with recombinant alpha-synuclein preformed fibrils at 10 uM incubated for 24 hrs by label free quantification based proteomics analysis; type: functional, cell-based; details: Homo sapiens
HEK-293T [12] = assay: Activation of autophagy-lysosome pathway in HEK293T cells seeded with recombinant alpha-synuclein preformed fibrils assessed as decrease in p62 level at 10 uM incubated for 6 hrs by immunoblot analysis; type: functional, cell-based; details: Homo sapiens
SH-SY5Y [13] = assay: Neuroprotective activity against alpha-synuclein aggregate-induced cell injury in human SH-SY5Y cells over-expressing alpha-synuclein preformed fibrils assessed as decrease in LDH release at 10 uM by LDH assay; type: functional, cell-based
HEK-293T [14] = assay: Effect on alpha-synuclein total level in HEK293T cells seeded with recombinant alpha-synuclein preformed fibrils upto 40 uM measured after 48 hrs by immunoblot analysis; type: functional, cell-based; details: Homo sapiens
Caenorhabditis elegans [15] = assay: In vivo PROTAC activity at CRBN/Alpha-synuclein overexpressed in Caenorhabditis elegans NL5901 co-expressing YFP fusion protein assessed as reduction in alpha-synuclein-YFP level at 20 to 80 uM incubated for 48 hrs by confocal laser scanning microscopic analysis; type: functional, organism-based; details: dose 20-80 µM
Caenorhabditis elegans [16] = assay: In vivo PROTAC activity at CRBN/Alpha-synuclein overexpressed in Caenorhabditis elegans NL5901 co-expressing YFP fusion protein assessed as induction of alpha-synuclein aggregate degradation incubated for 48 hrs by dot blot analysis; type: functional, organism-based; details: dose 20-80 µM
HEK-293T [17] = assay: Activation of autophagy-lysosome pathway in HEK293T cells seeded with recombinant alpha-synuclein preformed fibrils harboring adenovirus-mCherry-GFP-LC3B assessed as increase in GFP(-) punctae ratio at 10 uM treated for 6 hrs by DAPI staining based confocal laser scanning microscopic analysis; type: functional, cell-based; details: Homo sapiens
[18] = Drug uptake in HEK293T cell membrane at 10 uM measured at 5 to 360 min by confocal laser scanning microscopic analysis; type: ADME, cell membranes; details: human, hek-293t, time 5-360 min
Caenorhabditis elegans [19] = assay: In vivo PROTAC activity at CRBN/Alpha-synuclein overexpressed in Caenorhabditis elegans NL5901 co-expressing YFP fusion protein assessed as induction of alpha-synuclein aggregate degradation incubated for 48 hrs by immunoblot analysis; type: functional, organism-based; details: dose 20-80 µM
[20] = biological target: T1, Protein cereblon/Alpha-synuclein (Homo sapiens) (UniProt P37840+Q96SW2); assay: PROTAC activity at CRBN/recombinant alpha-synuclein preformed fibrils seeded in HEK293T cells assessed as decrease in alpha-synuclein aggregates at 5 to 20 uM measured after 48 hrs by immunoblot analysis; type: cell-based; details: dose 5-20 µM
[21] = biological target: Baculoviral IAP repeat-containing protein 2/Alpha-synuclein (Homo sapiens) (UniProt Q13490+P37840); assay: PROTAC activity at cIAP1/recombinant alpha-synuclein preformed fibrils seeded in HEK293T cells assessed as decrease in alpha-synuclein aggregates upto 40 uM measured after 48 hrs by immunoblot analysis; type: cell-based
[22] = biological target: T1, Protein cereblon/Alpha-synuclein (Homo sapiens); assay: PROTAC activity at CRBN/recombinant alpha-synuclein preformed fibrils seeded in HEK293T cells assessed as decrease in alpha-synuclein aggregates upto 40 uM measured after 48 hrs by immunoblot analysis; type: cell-based

Activity [20]: inactive
SMILES: CN1C(=O)CCC(N2C(=O)c3cccc(NCCOCCOCCOCCNC(=O)CNc4cccc(-c5cc(-c6ccc7c(c6)OCO7)n[nH]5)c4)c3C2=O)C1=O (stereo not given)

Activity [21]: Active
SMILES: CC(C)C[C@H](NC(=O)[C@@H](O)[C@H](N)Cc1ccccc1)C(=O)NCCOCCOCCOCCNc1cccc(-c2cc(-c3ccc4c(c3)OCO4)n[nH]2)c1

Activity [21]: Active
SMILES: CC(C)C[C@H](NC(=O)[C@@H](O)[C@H](N)Cc1ccccc1)C(=O)NCCOCCOCCNc1cccc(-c2cc(-c3ccc4c(c3)OCO4)n[nH]2)c1

Second part, the compound before the results:

SMILES: Cc1ncsc1-c1ccc([C@H](C)NC(=O)[C@@H]2C[C@@H](O)CN2C(=O)[C@@H](NC(=O)CCOCCOCCNc2cccc(-c3cc(-c4ccc5c(c4)OCO5)n[nH]3)c2)C(C)(C)C)cc1
Activity [1]: Active

SMILES: O=C(CNc1cccc(-c2cc(-c3ccc4c(c3)OCO4)n[nH]2)c1)NCCOCCOCCOCCNc1cccc2c1C(=O)N(C1CCC(=O)NC1=O)C2=O (stereo not given)
Activity (HEK-293T [2]): inactive
Activity (HEK-293T [3]): Active
Activity (Caenorhabditis elegans [4]): Active
Activity (SH-SY5Y [5]): Active
Activity (HEK-293T [6]): Active
logP at 24 h [7]: 2.04
Activity (HEK-293T [8]): Active
Activity (HEK-293T [9]): Active
Activity (HEK-293T [10]): Active
Activity (HEK-293T [11]): Active
Activity (HEK-293T [12]): Active
Activity (SH-SY5Y [13]): Active
Activity (HEK-293T [14]): inactive
Activity (Caenorhabditis elegans [15]): Active
Activity (Caenorhabditis elegans [16]): Dose-Dependent Effect
Activity (HEK-293T [17]): Active
Drug uptake [18]: Active
Activity (Caenorhabditis elegans [19]): Dose-Dependent Effect

SMILES: Nc1cccc(-c2cc(-c3ccc4c(c3)OCO4)n[nH]2)c1
Activity [20]: inactive

SMILES: Cc1ncsc1-c1ccc([C@H](C)NC(=O)[C@@H]2C[C@@H](O)CN2C(=O)[C@@H](NC(=O)CCOCCOCCOCCNc2cccc(-c3cc(-c4ccc5c(c4)OCO5)n[nH]3)c2)C(C)(C)C)cc1
Activity [1]: Active

SMILES: O=C(CNc1cccc(-c2cc(-c3ccc4c(c3)OCO4)n[nH]2)c1)NCCOCCOCCNc1cccc2c1C(=O)N(C1CCC(=O)NC1=O)C2=O (stereo not given)
Activity [22]: Active
